For four compounds, mass density and refractive index results are on record in the NIST ThermoML archive (doi:10.1021/je700126z).

As usually defined, the mass density is the mass of a sample divided by its volume. By refractive index is commonly meant a measure of how strongly the sample bends light.

The conditions of data set [1]: 298.15 K; 101.33 kPa; Liquid; Vibrating tube method.
Data set [2] is described as follows: refractive index (Na D-line) (dimensionless). The settings on record: 298.15 K; 101.33 kPa; Liquid; Standard Abbe refractometry.

Numbers after ± are expanded uncertainties.

Take `CCCCCCCC[n+]1ccn(C)c1.F[B-](F)(F)F` [1-methyl-3-octylimidazolium tetrafluoroborate]: the mass density in data set [1] worked out at 1104.42 ± 6.6 kg/m3. The refractive index in data set [2] amounted to 1.43329 ± 0.0012.
Taken in the same sequence, the figures for `C1CCCCC1` [cyclohexane] were 773.76 ± 0.24 kg/m3 and 1.42403 ± 0.0007.
Taken in the same sequence, the figures for `CCCCCC` [hexane] were 655.06 ± 0.19 kg/m3 and 1.37287 ± 0.00068.
For the compound `c1ccsc1` [thiophene], the mass density in data set [1] was 1058.5 ± 0.12 kg/m3. The refractive index in data set [2] was 1.52581 ± 0.00068.
